Experimental data taken from patent US9839632B2, “Methods and compositions using 4-amino-2-(2,6-dioxo-piperidine-3-yl)-isoindoline-1,3-dione for treatment and management of central nervous system cancers” (CELGENE CORPORATION, priority 2013, dated 2017).

Experiments:
[1] = system: primary murine peritoneal macrophages; experiment: Polarization of IL4-treated primary murine peritoneal macrophages (immunofluorescence); assay type: cell-based; details: IL-4 20 ng/ml 48 hours then 10 ug/ml 48 hours
Experimental: (§1) Treatments: In experiments in which IL-4 was used to induce M2 polarization of macrophages, cells were treated with IL-4 (20 ng/ml) for 48 hours followed by treatment with 4-amino-2-(2,6-dioxo-piperidine-3-yl)-isoindoline-1,3-dione (10 ug/ml) or DMSO control for 48 hours. In triple cell culture experiments with lymphoma cells, macrophages, and NK cells, the treatment was with either DMSO or 4-amino-2-(2,6-dioxo-piperidine-3-yl)-isoindoline-1,3-dione (10 ug/ml) for 48 hours.
(§2) Immunofluorescence for analysis of macrophage polarization in cell culture experiments: Live cells were fixed in 10% formalin for 30 minutes at room temperature followed by permeabilization with PBS-0.2% Triton X-100 for 2 min. After blocking with PBS-5% goat serum-0.02% Triton X-100 for 30 minutes at 37° C., the cells were incubated overnight at 4° C. with rat monoclonal F4/80 antibody (for primary microglia cells, 1:200 Abcam), rat monoclonal CD11b (for U937, 1:200 Biolegend), rabbit polyclonal Ym1 antibody (for primary microglia cells and primary peritoneal macrophages, 1:200, Stemcell Technologies, Vancouver, Canada), rabbit polyclonal FXIII A antibody (for U937, 1:200, Abcam), mouse monoclonal p-STAT1 antibody (1:200, Abcam), rabbit polyclonal p-STAT6 antibody (1:200, Abcam) or rabbit iNOS antibody (1:200, Calbiochem). […]

[2] = system: primary murine microglia cells cocultured with OCI-LY10 lymphoma cells; experiment: Polarization of primary murine microglia cocultured with OCI-LY10 lymphoma cells with or without primary murine NK cells; assay type: cell-based; details: for M2 polarization of microglia cells (FXIIIA, pSTAT6): coculture with OCI-LY10 lymphoma cells, without NK cells; for polarization status of microglia cells (iNOS, pSTAT1): triple culture with OCI-LY10 lymphoma cells and primary murine NK cells, 10 ug/ml 48 hours
Experimental: as §1
Immunofluorescence for analysis of macrophage polarization in cell culture experiments: Live cells were fixed in 10% formalin for 30 minutes at room temperature followed by permeabilization with PBS-0.2% Triton X-100 for 2 min. After blocking with PBS-5% goat serum-0.02% Triton X-100 for 30 minutes at 37° C., the cells were incubated overnight at 4° C. with rat monoclonal F4/80 antibody (for primary microglia cells, 1:200 Abcam), rat monoclonal CD11b (for U937, 1:200 Biolegend), rabbit polyclonal Ym1 antibody (for primary microglia cells and primary peritoneal macrophages, 1:200, Stemcell Technologies, Vancouver, Canada), rabbit polyclonal FXIII A antibody (for U937, 1:200, Abcam), mouse monoclonal p-STAT1 antibody (1:200, Abcam), rabbit polyclonal p-STAT6 antibody (1:200, Abcam) or rabbit iNOS antibody (1:200, Calbiochem). After washing, cells were incubated with the Alexa Fluor 594 Goat anti-Rat IgG secondary antibody (1:1000, Life Technologies) and FITC Donkey anti-rabbit IgG secondary antibody (1:1000, Life technology) or FITC Goat anti-mouse IgG secondary antibody (1:1000, Sigma) at 37° C. for 45 minutes. Finally, Vectashield H-1200 mounting medium with DAPI (Vector Laboratories) was used to stain the nuclei. Images were obtained on a Zeiss LSM 510 META confocal microscope.

[3] = system: macrophages and NK cells in the CNS lymphoma microenvironment; experiment: Immunohistochemistry/immunofluorescence of CNS lymphoma microenvironment, Raji model; assay type: in vivo, athymic mice; details: P<0.05 vs control
Text: Immunohistochemistry (“IHC”) assessment for macrophages: Paraffin sections (10 μm thick) were fixed, blocked, and immunostained with the appropriate antibody: Iba-1 (BD Biosciences) for macrophages, Ym1 (Stemcell Technologies) as a marker for M2 polarization, iNOS (Calbiochem) as a marker for M1 polarization. Aperio ScanScope XT slide scanner and image analysis system (Aperio Spectrum, Vista, Calif.) were used for quantitative assessment of macrophages. Three equal-size (0.4 mM2) fields in macrophage-dense areas were selected in the contralateral brain and the tumor for counting. Data were shown as an average of the three fields.
Immunofluorescence for natural killer cells: Frozen sections (10 μm thick) were permeabilized with PBS-0.2% Triton X-100 for 5 min. After blocking with PBS-5% goat serum-0.02% Triton X-100 for 45 mins at 37° C., the sections were incubated overnight at 4° C. with Rat monoclonal CD335 antibody (a marker for NK cells, 1:200, Biolegend). After washing, sections were incubated with the Alexa Fluor 594 Goat anti-Rat IgG secondary antibody (1:1000, Life Technologies) at 37° C. for 1.5 h. Finally, Vectashield H-1200 mounting medium with DAPI (Vector Laboratories) was used to stain the nuclei. Images were obtained on a Zeiss LSM 510 META confocal microscope. Six equal-size (0.2 mM^2) fields in NK-dense areas were selected in the tumor for taking pictures. Fluorescence intensity data were generated by Zeiss LSM 510 and shown as an average of six fields.
Statistical analysis: One-way ANOVA was used to compare the difference between the groups at each time point. Two-way repeated measures ANOVA was used to analyze the interaction between the time and treatment. Survival analysis was performed by Kaplan Meier method. Kaplan Meier survival curves were generated using Prism4 software and the statistical difference between curves was derived with a log-rank test. P<0.05 was considered significant.

[4] = system: primary murine microglia cells; experiment: Polarization of IL4-treated primary murine microglia cells (immunofluorescence); assay type: cell-based; details: IL-4 20 ng/ml 48 hours then 10 ug/ml 48 hours
Experimental: as §1, §2

[5] = listed as 4-amino-2-(2,6-dioxo-piperidine-3-yl)-isoindoline-1,3-dione

Compound: Nc1cccc2c1C(=O)N(C1CCC(=O)NC1=O)C2=O (stereo not shown) [Pomalidomide, 4-amino-2-(2,6-dioxo-piperidine-3-yl)-isoindoline-1,3-dione]
- polarization status (FXIII A, pSTAT6 vs iNOS, pSTAT1 expression) [1]: from M2 to M1
- M2 polarization of microglia cells (FXIIIA, pSTAT6) [2]: reversed
- M2 polarization of microglia cells (FXIIIA, pSTAT6) [2, 5]: M2 polarization was not seen
- polarization status of microglia cells (iNOS, pSTAT1) [2]: from M2 to M1
- polarization status of microglia cells (iNOS, pSTAT1) [2, 5]: became M1-polarized
- CD335 positive NK cells in CNS tumors [3]: significantly increased
- Ym1-expressing cells (M2-polarized macrophages) in tumor [3]: significantly decreased
- iNOS-expressing cells (M1-polarized macrophages) in tumor [3]: increased
- CD335 positive NK cells in CNS tumors [3, 5]: significant increase
- Ym1-expressing cells (M2-polarized macrophages) in tumor [3, 5]: significant decrease
- iNOS-expressing cells (M1-polarized macrophages) in tumor [3, 5]: significant increase
- brain macrophages (Iba-1 positive cells) ([3]; contralateral brain and tumor): significantly increased
- polarization status (FXIII A, pSTAT6 vs iNOS, pSTAT1 expression) [4]: from M2 to M1
